Test: molar heat capacity at constant pressure; xn = mol fraction of the nth substance listed
Conditions: Liquid, Flow calorimetry

C1CCCCC1 [cyclohexane] + CCCCO
molar heat capacity at constant pressure [J/K/mol]
Conditions | x2 = 0 | x2 = 0.1013 | x2 = 0.2003 | x2 = 0.3002 | x2 = 0.4013 | x2 = 0.4997 | x2 = 0.6002 | x2 = 0.6999 | x2 = 0.7998 | x2 = 0.8999
293.15 K, 25000 kPa | – | – | – | – | – | – | – | 165.6 | 166 | 166.6
313.15 K, 100 kPa | – | 179.7 | 182.8 | 185.3 | 187.8 | 188.1 | 189.4 | 191.3 | 191.4 | 191.1
313.15 K, 5000 kPa | – | 177.4 | 180.4 | 183.2 | 186.1 | 186.5 | 187.4 | 189.1 | 189.9 | 189.3
313.15 K, 10000 kPa | – | 175.2 | 178.8 | 181.1 | 183.7 | 184.5 | 185.4 | 187.4 | 188.9 | 187.3
313.15 K, 15000 kPa | – | 172.9 | 175.8 | 178.9 | 181.6 | 182.7 | 183.8 | 185.5 | 187.2 | 186.5
313.15 K, 20000 kPa | – | 170.5 | 173.8 | 177 | 180.4 | 180.7 | 181.4 | 184.3 | 185.4 | 184.6
313.15 K, 25000 kPa | 154.6 | 168.7 | 171.6 | 175 | 177.8 | 179.3 | 179.7 | 182.3 | 183.9 | 183.1
